In patent US11730731B2 (INVENTAGE LAB INC., priority 2021, dated 2023):

What was measured:
[1] = system: murine collagen-induced arthritis (CIA); assay: Histological estimation of hind paw tissue, toluidine blue staining, CIA mice; assay type: in vivo, mouse; set-up: scale not given here; settings: day 41
Protocol: (§1) Mice were sacrificed on the 41th day, which is the end of the experiment, and the tissues of the hind paws were stained with hematoxylin/eosin. Hematoxylin/eosin staining was used to evaluate the activity of inflammation in the arthritic tissue, and toluidine blue staining was performed to confirm the histological therapeutic effect on cartilage destruction.
The hind paw tissue of the mouse was stained with toluidine blue, and 4 sites (100 magnification) for each tissue were photographed. Two or more investigators evaluated the items of matrix staining, surface regularity, and cartilage thickness. The scoring criteria for each item was described in Table 9, and the average score of 4 sites was calculated as the score of each
(§2) In the same manner as in Example 2.3. (2), the hind paw tissue of the mouse was stained with toluidine blue, and items such as photographing and matrix staining, surface regularity, and cartilage thickness were evaluated. The scoring criteria for each item were described in Table 9, and the average score of 4 sites was calculated as the score of each tissue.
as §2, with “2.3. (2) above,” for “2.3. (2),”, “item is” for “item were”

[2] = system: murine collagen-induced arthritis (CIA); assay: Clinical evaluation of arthritis activity (clinical arthritis index, incidence) in collagen-induced arthritis mice; assay type: in vivo, mouse; set-up: CAI-AUC Mean / Incidence-AUC Mean: unit not given here; settings: for CAI Mean: naltrexone (Revia Tablet) 10 mg/kg oral once/day
Protocol: As a model of murine collagen-induced arthritis (CIA), 6 to 10 week-old male mice of DBA/1 J strain was prepared. […] The number of experimental animals per cage was kept under 6, and a cage was exchanged twice a week and feed was supplied.
A 2 mg/mL collagen solution was prepared by dissolving bovine type 2 collagen in 10 mM acetic acid. After emulsifying by mixing 2 mg/mL of Complete Freund's adjuvant and collagen solution in a 1:1 (v/v) ratio, it was intradermally injected into the tail of mouse at a dose of 100 μl/animal (first immunization, day 0). After emulsifying by mixing incomplete Freund's adjuvant […] and collagen solution in a 1:1 (v/v) ratio on the 21th day, it was intradermally injected into the tail of mouse at a dose of 100 μl/animal (the secondary immunization, on the 21th day). After that, mice were randomly divided into groups and assigned to experimental groups.
The refrigerated test substance was standed at room temperature 1 hour before administration and dissolved in 0.15 mL of water for injection. 0.15 mL of the test substance was filled using a syringe with a 21 G needle. The needle was changed to 23 G within 2 minutes after filling and the mice were injected.
(§3) After administration of the test substance to the collagen-induced arthritis mouse model, the occurrence and level of inflammation were regularly observed from the date of group separation to the end of the experiment (the 41th day). Inflammation level was given a score of 0 to 4 for each paw according to the criteria in Table 4 below, and the sum was used as a clinical arthritis index (CAI).
When the clinical index of each paw was 2 score or higher, it was determined that arthritis occurred, and the incidence was defined as 100% when arthritis occurred in […].
as §3, with “end date” for “end”, “above,” for “below,”
as §3, with “above,” for “below,”

IL-6 = assay: Multiplex protein immunoassay of IL-6 in serum of CIA mice; assay type: in vivo, mouse; settings: Example 3, positive control groups (MTX, Xeljanz)
Excerpt: In order to evaluate the inflammatory activity and confirm the mode of action of the test substance through quantitative analysis of inflammatory substances in mouse arthritis tissue and blood, inflammatory mediators were investigated at the protein level. In order to overcome the limitation of the amount of sample that can be extracted for protein analysis, a multi-analyte-ELISA (multi-analyte-ELISA) method based on Luminex technology was used to analyze the largest amount of protein in a small sample.
After washing with a wash buffer, it was reacted with the target-measurement antibody for 30 minutes, and after washing with a wash buffer again, it was reacted with streptavidin-PE for 10 minutes. Thereafter, the target protein is quantitatively measured for each administration group using the Bio-Plex® 200 system (Bio-Rad).
For the measurement result, paw tissue weight of the mouse was corrected for the quantified amount of IL-6 protein. For each target joint, the hind paw was mainly used, and in order to overcome the limitation of the amount of protein extracted from the joint tissue, up to 4 inflammatory mediators were measured in one well. […]

[3] = Safety assessment in vivo by body weight, CIA mice; settings: Example 3, CIA mouse, MTX 1 mg/kg ip twice/week, Xeljanz 10 mg/kg oral once/day, MTX 1 mg/kg + Q-DDS 3 mg/mouse; for D23 body weight Mean: day 23 (baseline); for D41 body weight Mean: day 41; for Change of body weight (%, D23 body weight 100%) Mean: day 41 vs day 23
Protocol: The safety in vivo of the test substance was evaluated by measuring the body weight of mouse in each administration group of Example 4.1.
For the safety evaluation of the test substance, the body weight of mouse was measured daily from before the start of administration (The 23th day) to just before the end of administration (The 41th day), and the body weight (%) of the mouse for each administration group over the time (day) and the body weight on the 41th day were shown in FIG. 16A, FIG. 16B and Table 27.

[4] = system: murine collagen-induced arthritis (CIA); assay: Histological estimation of hind paw tissue, hematoxylin/eosin staining, CIA mice; assay type: in vivo, mouse; set-up: scale not given here; settings: day 41
Protocol: as §1
The hind paw tissue of the mouse was stained with hematoxylin/eosin, and 4 sites (100 magnification) for each tissue were photographed. Two or more investigators evaluated the items of synovial hyperplasia, pannus formation, cartilage destruction, and bone erosion for hematoxylin/eosin staining. The scoring criteria for each item were described in Table 7, and the average score of 4 sites was calculated as the score of each tissue.
Hematoxylin/eosin staining was performed and evaluated in the same manner as in Example 2.3. (1) above, and the score for items of synovial hyperplasia, pannus formation, cartilage destruction, and bone erosion was calculated by scoring each tissue as the average of the score of 4 sites based on Table 7 above.

[5] = Example 2, CIA mouse, MTX 1 mg/kg, naltrexone 10 mg/kg oral, naltrexone DDS 3 mg/mouse
[6] = Example 3, CIA mouse, MTX 1 mg/kg ip twice/week, Xeljanz 10 mg/kg oral once/day, MTX 1 mg/kg + Q-DDS 3 mg/mouse
[7] = Example 2, CIA mouse, methotrexate 1 mg/kg ip twice/week, naltrexone 10 mg/kg oral once/day, naltrexone DDS 3 mg/mouse sc once on day 23
[8] = Example 2, CIA mouse, methotrexate 1 mg/kg ip twice/week, naltrexone DDS 3 mg/mouse sc once on day 23

For `CN(Cc1cnc2nc(N)nc(N)c2n1)c1ccc(C(=O)N[C@@H](CCC(=O)O)C(=O)O)cc1` [Methotrexate, methotrexate], the “Cartilage thickness score Mean (toluidine blue)” value (shortened to “Cartilage thickness score Mean”) [1, 5] was 0.11, the “Matrix staining score Mean (toluidine blue)” value (“Matrix staining score Mean” below) [1, 5] was 0.61 and the “Surface regularity score Mean (toluidine blue)” value (from here on “Surface regularity score Mean”) [1, 5] was 0.34. The “Cartilage thickness score Mean” value [1, 6] was 0.38, the “Matrix staining score Mean” value [1, 6] was 1.15 and the “Surface regularity score Mean” value [1, 6] was 1.02. For the same compound, the “CAI-AUC Mean” value [2, 7] was 46.6, the “Incidence (%) Mean” value [2, 7] was 20.83% and the “Incidence-AUC Mean” value [2, 7] was 185.4. For the same compound, the “CAI Mean” value [2, 8] was 5.92, the “CAI (D41) Mean” value [2, 6] was 6.35 and the “CAI-AUC Mean” value [2, 6] was 71.20. For the same compound, the “Incidence (%) Mean” value [2, 6] was 30.0%, the “Incidence-AUC Mean” value [2, 6] was 170.0 and the “ELISA values in Serum, IL-6, Mean” value (IL-6) was 39.6 pg/mL. The D23 body weight Mean [3] was 22.7 g, the D41 body weight Mean [3] was 23.8 g and the “Change of body weight (%, D23 body weight 100%) Mean” value [3] was 104.7%. For the same compound, the “Bone erosion score Mean (hematoxylin/eosin)” value [4, 5] was 0.08, the “Cartilage destruction score Mean (hematoxylin/eosin)” value [4, 5] was 0.50 and the “Pannus formation score Mean (hematoxylin/eosin)” value [4, 5] was 0.14. The “Synovial hyperplasia score Mean (hematoxylin/eosin)” value [4, 5] was 0.91, the “Bone erosion score Mean (hematoxylin/eosin)” value [4, 6] was 0.92 and the “Cartilage destruction score Mean (hematoxylin/eosin)” value [4, 6] was 1.02. For the same compound, the “Pannus formation score Mean (hematoxylin/eosin)” value [4, 6] was 0.92 and the “Synovial hyperplasia score Mean (hematoxylin/eosin)” value [4, 6] was 1.38.

For `O=C1CC[C@@]2(O)[C@H]3Cc4ccc(O)c5c4[C@@]2(CCN3CC2CC2)[C@H]1O5` [Naltrexone, 17-(cyclopropylmethyl)-4,5α-epoxy-3,14-dihydroxymorphinan-6-one], the “Cartilage thickness score Mean” value [1, 5] was 0.39, the “Matrix staining score Mean” value [1, 5] was 0.92 and the “Surface regularity score Mean” value [1, 5] was 0.80. For the same compound, the “Incidence (%) Mean” value [2, 7] was 41.67%, the “CAI Mean” value [2, 8] was 8.25 and the “Bone erosion score Mean (hematoxylin/eosin)” value [4, 5] was 0.58. The “Cartilage destruction score Mean (hematoxylin/eosin)” value [4, 5] was 0.98, the “Pannus formation score Mean (hematoxylin/eosin)” value [4, 5] was 0.58 and the “Synovial hyperplasia score Mean (hematoxylin/eosin)” value [4, 5] was 1.27.

In the case of `C[C@@H]1CCN(C(=O)CC#N)C[C@@H]1N(C)c1ncnc2[nH]ccc12` [Xeljanz ®, Tofacitinib], the “Cartilage thickness score Mean” value [1, 6] is reported as 0.56, the “Matrix staining score Mean” value [1, 6] is reported as 1.42 and the “Surface regularity score Mean” value [1, 6] is reported as 1.13. The “CAI (D41) Mean” value [2, 6] was 6.25, the “CAI-AUC Mean” value [2, 6] was 74.50 and the “Incidence (%) Mean” value [2, 6] was 27.5%. For the same compound, the “Incidence-AUC Mean” value [2, 6] was 263.8, the “ELISA values in Serum, IL-6, Mean” value (IL-6) was 94.5 pg/mL and the D23 body weight Mean [3] was 21.7 g. The D41 body weight Mean [3] was 21.6 g, the “Change of body weight (%, D23 body weight 100%) Mean” value [3] was 99.6% and the “Bone erosion score Mean (hematoxylin/eosin)” value [4, 6] was 1.13. The “Cartilage destruction score Mean (hematoxylin/eosin)” value [4, 6] was 1.38, the “Pannus formation score Mean (hematoxylin/eosin)” value [4, 6] was 1.13 and the “Synovial hyperplasia score Mean (hematoxylin/eosin)” value [4, 6] was 1.56.
